According to patent US7034040B2, “Fluorinated heterocyclic compounds and methods of synthesis” (R.T. Alamo Ventures I, priority 2002, dated 2006):

Columns and labels:
[1] = test system: Protein Serine/Threonine Kinase PKC, Non-Selective; assay: Protein serine/threonine kinase PKC, non-selective, enzyme assay; type: biochemical; settings: rat brain enzyme
Excerpt: In this example, monofluoroflosequinan was subjected to biochemical enzyme assays and radioligand binding assays to determine its percent inhibition of a variety of enzyme activities and its percent inhibition of specific binding. The methods used have been adapted from those described in the scientific literature, see Hidaka and Asano “Human blood platelet 3′:5′ cyclic nucleotide phosphodiesterase. Isolation of low-Km and high Km phosphodiesterase.” Biochem. Biophys. Acta 429:485 (1976); Nicholoson et al. “Differential modulation of tissue function and therapeutic potential of selective inhibitors of cyclic nucleotide phosphodiesterase isoenzymes” Trends Pharmacol. Sci. 12:19 (1991); Cortijo et al. “Investigation into the role of phosphodiesterase IV in bronchorelaxation, including studies with hyman bronchus.” Br. J Pharmacol. 108:562 (1993); Baehr et al. “Isolation and characterization of cGMP phosphodiesterase from bovine rod outer segments.” J. Biol. Chem. 254:11669 (1979), Gillespie and Beavo “Inhibition and stimulation of photoreceptor phosphodiesterase by dipyridamole and M&B 22,948” Molecular Pharm. 36:773 (1989); Tamaoki and Nakano “Potent and specific inhibitors of protein kinase C of microbial origin” Biotechnology 8:732 (1990); Wilkinson et al. “Isoenzyme specificity of bisindolymaleimides, selective inhibitors of protein kinase C” Biochem. J 294:335 (1993); Tamaki et al. “Staurosporine, a potent inhibitor of phospholipid/Ca++dependent protein kinase” Biochem. Biophys. Res. Comm, 135:397 (1986); Schoemaker and Langer “[3H]Diltiazem binding to calcium channel antagonist recognition sites in rate cerebral cortex” Eur. J Pharmacol. 111:273 (1985); Ehlert et al. “The binding of [3H]nitrendipine to receptors for calcium channel antagonists in the heart, cerebral cortex and ileum of rats.” Life Sci. 30:2191 (1982); Gould et al. “[3H]nitrendipine-labeled calcium channels discriminate inorganic calcium agonists and antagonists” Proc. Natl. Acad. Sci. USA 79:3656 (1982); Reynolds et al. “(−)−[3H]Desmethoxyverapamil labels multiple calcium channel modulator receptors in brain and skeletal muscle membranes: Differentiation by temperature and dihydropyridines” J Pharmacol. Exp. Ther. 237:731 (1986) and Worley et al. “Characterization of inositol triphosphate receptor binding in brain. Regulation by pH and calcium” J Biol. Chem. 262:12132 (1987). A brief summary of the conditions for each assay is provided below:
Protein Serine/Threonine Kinase PKC, Non-Selective: The enzyme was obtained from rat brain and the substrate was 370 μg/ml histone. The reaction was pre-incubated 5 min at 25° C., followed by a 15 min incubation at 25° C. in a buffer of 20 mM Tris-HCl, 10 mM MgCl2.Ho and 0.1 mM CaCl2.2HO, pH 7.4. [^32P]histone was quantitated.

PDE1 = PDE1 enzyme inhibition assay; type: biochemical; settings: 1000 μM compound, 1% DMSO vehicle, bovine heart enzyme
Excerpt: (§1) In this example, monofluoroflosequinan was subjected to biochemical enzyme assays and radioligand binding assays to determine its percent inhibition of a variety of enzyme activities and its percent inhibition of specific binding. The methods used have been adapted from those described in the scientific literature, see Hidaka and Asano “Human blood platelet 3′:5′ cyclic nucleotide phosphodiesterase. Isolation of low-Km and high Km phosphodiesterase.” Biochem. Biophys. Acta 429:485 (1976); Nicholoson et al. “Differential modulation of tissue function and therapeutic potential of selective inhibitors of cyclic nucleotide phosphodiesterase isoenzymes” Trends Pharmacol. Sci. 12:19 (1991); Cortijo et al. “Investigation into the role of phosphodiesterase IV in bronchorelaxation, including studies with hyman bronchus.” Br. J Pharmacol. 108:562 (1993); Baehr et al. “Isolation and characterization of cGMP phosphodiesterase from bovine rod outer segments.” J. Biol. Chem. 254:11669 (1979), Gillespie and Beavo “Inhibition and stimulation of photoreceptor phosphodiesterase by dipyridamole and M&B 22,948” Molecular Pharm. […]
PDE1: PDE1 partially purified from bovine heart was used. […] Unhydrolyzed cAMP was bound to AGI-X2 resin, and the remaining [^3H]adenosine in the aqueous phase was quantitated by scintillation counting.

PDE3 = molecular target: T1, PDE3 (Homo sapiens, UniProt Q14432); assay: PDE3 enzyme inhibition assay; type: biochemical; settings: 1000 μM compound, 1% DMSO vehicle, human platelet enzyme
T1 construct: PDE3 partially purified from human platelets was used; from tissue; host or cells: human platelets
T1 sequence (Q14432 whole entry): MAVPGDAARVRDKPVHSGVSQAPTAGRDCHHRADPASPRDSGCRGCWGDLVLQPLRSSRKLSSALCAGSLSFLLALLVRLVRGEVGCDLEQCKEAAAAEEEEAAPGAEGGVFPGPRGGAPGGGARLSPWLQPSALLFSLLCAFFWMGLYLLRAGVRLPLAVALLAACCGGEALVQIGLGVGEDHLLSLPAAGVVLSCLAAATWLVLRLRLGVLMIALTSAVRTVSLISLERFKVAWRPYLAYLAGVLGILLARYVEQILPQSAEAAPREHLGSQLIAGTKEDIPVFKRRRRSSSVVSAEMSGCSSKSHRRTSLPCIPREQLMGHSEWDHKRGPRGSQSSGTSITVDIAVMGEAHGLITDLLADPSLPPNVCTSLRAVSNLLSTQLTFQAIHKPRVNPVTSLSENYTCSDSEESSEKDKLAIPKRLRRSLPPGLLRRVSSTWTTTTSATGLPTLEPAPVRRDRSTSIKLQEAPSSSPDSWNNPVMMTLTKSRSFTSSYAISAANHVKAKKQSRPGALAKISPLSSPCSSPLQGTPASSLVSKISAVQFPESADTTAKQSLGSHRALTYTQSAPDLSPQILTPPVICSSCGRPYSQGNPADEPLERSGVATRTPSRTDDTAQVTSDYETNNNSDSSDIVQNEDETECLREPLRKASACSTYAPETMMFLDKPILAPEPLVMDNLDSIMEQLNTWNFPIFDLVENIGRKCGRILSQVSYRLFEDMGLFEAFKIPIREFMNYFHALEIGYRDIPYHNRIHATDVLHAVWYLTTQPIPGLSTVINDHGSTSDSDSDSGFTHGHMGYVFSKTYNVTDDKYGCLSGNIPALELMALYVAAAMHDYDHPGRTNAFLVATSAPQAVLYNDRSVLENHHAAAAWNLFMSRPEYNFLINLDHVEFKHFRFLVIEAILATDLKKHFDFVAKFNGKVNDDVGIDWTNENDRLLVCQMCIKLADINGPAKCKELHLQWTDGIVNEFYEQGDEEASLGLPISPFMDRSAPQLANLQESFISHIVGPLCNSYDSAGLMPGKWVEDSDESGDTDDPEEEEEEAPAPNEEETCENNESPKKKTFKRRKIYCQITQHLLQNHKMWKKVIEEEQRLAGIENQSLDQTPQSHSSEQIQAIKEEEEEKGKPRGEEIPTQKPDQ
Excerpt: as §1
PDE3: PDE3 partially purified from human platelets was used. […] Unhydrolyzed cAMP was bound to AGI-X2 resin, and the remaining [^3H]adenosine in the aqueous phase was quantitated by scintillation counting.

[2] = molecular target: Calcium Channel Type L, Dihydropyridine; settings: Wistar rat cerebral cortex, 90 min at 25° C.; read-out: Kd (historical value of the radioligand); cited from earlier work
PDE4 = PDE4 enzyme inhibition assay; type: biochemical; settings: 1000 μM compound, 1% DMSO vehicle, human U-937 cell enzyme
Excerpt: as §1
PDE4: PDE4 partially purified from human U-937 pronocytic cells was used. […] Unhydrolyzed cAMP was bound to AGI-X2 resin, and the remaining [^3H]adenosine in the aqueous phase was quantitated by scintillation counting.

## Cn1cc([S+]([O-])CF)c(=O)c2ccc(F)cc21 (racemic) [monofluoroflosequinan, 7-fluoro-3-fluoromethylsulfinyl-1-methyl-4-quinolone]
[1]; 100 μM compound
  inhibition of protein serine/threonine kinase, PKC, non-selective: Significant inhibition
[1]; 300 μM compound
  inhibition of protein serine/threonine kinase, PKC, non-selective: Significant inhibition
[1]; 1000 μM compound, 1% DMSO vehicle
  inhibition of protein serine/threonine kinase, PKC, non-selective: Significant inhibition

## Cn1cc([S+]([O-])C(F)F)c(=O)c2ccc(F)cc21 (stereo not shown) [difluoroflosequinan, 3-difluoromethylsulfinyl-7-fluoro-1-methyl-4-quinolone]
PDE1
  inhibition of PDE1: greater than 50%
PDE3
  inhibition at 1000 µM: > 50%
[1]; 1000 μM compound
  inhibition of protein serine/threonine kinase, PKC, non-selective: greater than 50%

## CCOC(=O)C1=C(C)NC(C)=C(C(=O)OC)C1c1cccc([N+](=O)[O-])c1 (stereo not shown) [^3H Nitrendipine]
[2]
  Kd: 0.18 nM

## Cn1cc(S(=O)(=O)C(F)F)c(=O)c2ccc(F)cc21 [3-difluoromethylsulfonyl-7-fluoro-1-methyl-4-quinolone]
PDE1
  inhibition of PDE1: greater than 50%
PDE3
  inhibition at 1000 µM: > 50%
PDE4
  inhibition of PDE4: greater than 50%
